Reference: publication PMC8747035, “Design, Synthesis, and Biological Evaluation of 5,6,7,8-Tetrahydrobenzo[4,5]thieno[2,3-d]pyrimidines as Microtubule Targeting Agents” (Molecules, 2022)

Assays:
SK-OV-3 cells = assay: SRB assay in SK-OV-3 cells; format: cell-based; conditions: Homo sapiens, read-out: IC50 ± SD in SK-OV-3 Cells
Method: Comparison of the IC50 values in the parental SK-OV-3 and genetically manipulated SK-OV-3 MDR1-M6/6 cell line allows for the calculation of a relative resistance value, designated Rr. This value is calculated by dividing the IC50 value obtained in the Pgp-expressing SK-OV-3 MDR1-M6/6 cells by the IC50 obtained in the parental SK-OV-3 cells.
The antiproliferative and cytotoxic effects of the compounds in cancer cells were evaluated using the SRB assay as previously described. MDA-MB-435 cells were obtained from the Lombardi Cancer Center of Georgetown University (Washington, DC, USA). SK-OV-3 and HeLa cells were purchased from ATCC. Details about the generation of the SK-OV-3 MDR1-M6/6 and HeLa WTβIII cells were described previously. The IC50 values represent an average of three independent experiments, each conducted using triplicate points.
HeLa, A-10, SK-OV-3, and SK-OV-3 MDR1-M6/6 cells were grown in Basal Medium Eagle (Sigma-Aldrich, St. Louis, MO, USA) supplemented with 10% FBS (Hyclone, GE Life Sciences, Logan, UT, USA) 1% GlutaMAX (Gibco, Life Technologies, Waltham, MA, USA) and 50 µg/mL gentamycin (Life Technologies, USA). HeLa WTβIII cells were grown in Dulbecco’s Modified Eagle Medium (Life Technologies) supplemented with 10% FBS and 50 µg/mL gentamycin. MDA-MB-435 cells were maintained in Improved Minimum Essential Medium (Life Technologies) supplemented with 10% FBS and 25 µg/mL gentamycin. All cells were grown at 37 °C in a humidified environment with 5% CO2.

M14 = assay: NCI-60 growth inhibition, M14; format: cell-based; conditions: Homo sapiens, Melanoma
From the text: (§1) Compound 4 had better potency than the lead compound 1 in 50 cancer cell lines. (better by 5 to 6-fold in leukemia, 2 to 17-fold in NSCLC, 2 to 6-fold in colon cancer, 2 to 5-fold in CNS cancer, 2 to 25-fold in melanoma, 2 to 5-fold in ovarian cancer, 2 to 9-fold in renal cancer, 2 to 5-fold in prostate cancer, and 2 to 6-fold in breast cancer compared to lead compound 1).

HOP-62 = assay: NCI-60 growth inhibition, HOP-62; format: cell-based; conditions: Homo sapiens, NSCLC
From the text: as §1

COLO 205 = assay: NCI-60 growth inhibition, COLO 205; format: cell-based; conditions: Homo sapiens, Colon Cancer
From the text: as §1

Bovine brain tubulin = assay: Inhibition of purified tubulin assembly (turbidity); format: biochemical; conditions: 10 µM tubulin, 30 °C; read-out: Inhibition of Tubulin Assembly IC50 ± SD
Method: Bovine brain tubulin was purified as described previously. The tubulin assembly assay has been described in detail. Briefly, 1.0 mg/mL of tubulin (10 µM) was preincubated for 15 min at 30 °C in 0.8 M monosodium glutamate (pH of 2 M stock solution adjusted to 6.6 with HCl), varying compound concentrations and 4% (v/v) DMSO as compound solvent. After the preincubation, the reaction mixtures were placed on ice and 0.4 mM GTP was added. The reaction mixtures were transferred to cuvettes at 0 °C in a recording spectrophotometer equipped with an electronic temperature controller. After baselines were established, the temperature was elevated over about 30 s to 30 °C, and changes in turbidity were monitored at 350 nm for 20 min. The compound concentration that caused a 50% reduction in increase in turbidity, interpolated from the values obtained with defined compound concentrations, was defined as the IC50 value. The assay to measure inhibition of [^3H]colchicine binding was described in detail previously. Briefly, 0.1 mg/mL (1.0 µM) tubulin was incubated at 37 °C with 5.0 µM [3H]colchicine and potential inhibitors at 5.0 µM. Incubation was for 10 min, at which point the reaction had reached 40–60% of the maximum colchicine that can be bound in reaction mixtures without inhibitor. The [^3H]colchicine was a product of PerkinElmer, USA. CA-4 was a generous gift of Dr. G. R. Pettit, Arizona State University.

SNB-75 = assay: NCI-60 growth inhibition, SNB-75; format: cell-based; conditions: Homo sapiens, CNS Cancer
From the text: as §1

MOLT-4 = assay: NCI-60 growth inhibition, MOLT-4; format: cell-based; conditions: Homo sapiens, Leukemia
From the text: as §1

MDA-MB-468 = assay: NCI-60 growth inhibition, MDA-MB-468; format: cell-based; conditions: Homo sapiens, Breast Cancer
From the text: as §1

SK-MEL-28 = assay: NCI-60 growth inhibition, SK-MEL-28; format: cell-based; conditions: Homo sapiens, Melanoma
From the text: as §1

NCI-H226 = assay: NCI-60 growth inhibition, NCI-H226; format: cell-based; conditions: Homo sapiens, NSCLC
From the text: as §1

SW-620 = assay: NCI-60 growth inhibition, SW-620; format: cell-based; conditions: Homo sapiens, Colon Cancer
From the text: as §1

A498 = assay: NCI-60 growth inhibition, A498; format: cell-based; conditions: Homo sapiens, Renal Cancer
From the text: as §1

UO-31 = assay: NCI-60 growth inhibition, UO-31; format: cell-based; conditions: Homo sapiens, Renal Cancer
From the text: as §1

SF-295 = assay: NCI-60 growth inhibition, SF-295; format: cell-based; conditions: Homo sapiens, CNS Cancer
From the text: as §1

HT29 = assay: NCI-60 growth inhibition, HT29; format: cell-based; conditions: Homo sapiens, HT-29, Colon Cancer
From the text: as §1

NCI-H322M = assay: NCI-60 growth inhibition, NCI-H322M; format: cell-based; conditions: Homo sapiens, NSCLC
From the text: as §1

HS 578T = assay: NCI-60 growth inhibition, HS 578T; format: cell-based; conditions: Homo sapiens, Breast Cancer
From the text: as §1

SF-268 = assay: NCI-60 growth inhibition, SF-268; format: cell-based; conditions: Homo sapiens, CNS Cancer
From the text: as §1

MDA-MB-435 = assay: NCI-60 growth inhibition, MDA-MB-435; format: cell-based; conditions: Homo sapiens, Melanoma
From the text: as §1

SK-MEL-5 = assay: NCI-60 growth inhibition, SK-MEL-5; format: cell-based; conditions: Homo sapiens, Melanoma
From the text: as §1

TK-10 = assay: NCI-60 growth inhibition, TK-10; format: cell-based; conditions: Homo sapiens, Renal Cancer
From the text: as §1

NCI-H460 = assay: NCI-60 growth inhibition, NCI-H460; format: cell-based; conditions: Homo sapiens, NSCLC
From the text: as §1

OVCAR-5 = assay: NCI-60 growth inhibition, OVCAR-5; format: cell-based; conditions: Homo sapiens, Ovarian Cancer
From the text: as §1

SNB-19 = assay: NCI-60 growth inhibition, SNB-19; format: cell-based; conditions: Homo sapiens, CNS Cancer
From the text: as §1

DU-145 = assay: NCI-60 growth inhibition, DU-145; format: cell-based; conditions: Homo sapiens, Prostate Cancer
From the text: as §1

A549/ATCC = assay: NCI-60 growth inhibition, A549/ATCC; format: cell-based; conditions: Homo sapiens, NSCLC
From the text: as §1

SN12C = assay: NCI-60 growth inhibition, SN12C; format: cell-based; conditions: Homo sapiens, Renal Cancer
From the text: as §1

786-0 = assay: NCI-60 growth inhibition, 786-0; format: cell-based; conditions: Homo sapiens, Renal Cancer
From the text: as §1

MCF7 = assay: NCI-60 growth inhibition, MCF7; format: cell-based; conditions: Homo sapiens, Breast Cancer
From the text: as §1

Compound `COc1ccc(N(C)c2nc(N)nc3sc4c(c23)CCCC4)cc1` [Compound 4, N4-(4-methoxyphenyl)-N4-methyl-5,6,7,8-tetrahydrobenzo[4,5]thieno[2,3-d]pyrimidine-2,4-diamine] has an IC50 (SK-OV-3 cells) of 11.8 ± 1.1 nM, a GI50 (M14) of 4.32 nM and a GI50 (HOP-62) of 17.7 nM. It also gave a GI50 (COLO 205) of 10.8 nM, an IC50 (Bovine brain tubulin) of 820 ± 40 nM and a GI50 (SNB-75) of 8.42 nM. The GI50 (MOLT-4) was 8.8 nM, the GI50 (MDA-MB-468) was 6.05 nM and the GI50 (SK-MEL-28) was 12.1 nM. For the same compound, the GI50 (NCI-H226) was 17.5 nM, the GI50 (SW-620) was 5.63 nM and the GI50 (A498) was 12 nM. For the same compound, the GI50 (UO-31) was 11.8 nM, the GI50 (SF-295) was 10.2 nM and the GI50 (HT29) was 6.21 nM. The GI50 (NCI-H322M) was 11.6 nM, the GI50 (HS 578T) was 13.5 nM and the GI50 (SF-268) was 15.9 nM. For the same compound, the GI50 (MDA-MB-435) was 4.89 nM, the GI50 (SK-MEL-5) was 10.8 nM and the GI50 (TK-10) was 14.2 nM. The GI50 (NCI-H460) was 10.4 nM, the GI50 (OVCAR-5) was 10.8 nM and the GI50 (SNB-19) was 9.04 nM. The GI50 (DU-145) was 15.6 nM, the GI50 (A549/ATCC) was 12 nM and the GI50 (SN12C) was 14.4 nM. The GI50 (786-0) was 12.4 nM and the GI50 (MCF7) was 8.01 nM.
